Active and inactive are the calls of the source.
Legend:
[1] = biological target: Mitogen-activated protein kinase 13 (Homo sapiens, UniProt O15264); type: functional
[2] = biological target: T1, Histone-lysine N-methyltransferase NSD2 (Homo sapiens, UniProt O96028); type: biochemical
T1 sequence (O96028 whole entry): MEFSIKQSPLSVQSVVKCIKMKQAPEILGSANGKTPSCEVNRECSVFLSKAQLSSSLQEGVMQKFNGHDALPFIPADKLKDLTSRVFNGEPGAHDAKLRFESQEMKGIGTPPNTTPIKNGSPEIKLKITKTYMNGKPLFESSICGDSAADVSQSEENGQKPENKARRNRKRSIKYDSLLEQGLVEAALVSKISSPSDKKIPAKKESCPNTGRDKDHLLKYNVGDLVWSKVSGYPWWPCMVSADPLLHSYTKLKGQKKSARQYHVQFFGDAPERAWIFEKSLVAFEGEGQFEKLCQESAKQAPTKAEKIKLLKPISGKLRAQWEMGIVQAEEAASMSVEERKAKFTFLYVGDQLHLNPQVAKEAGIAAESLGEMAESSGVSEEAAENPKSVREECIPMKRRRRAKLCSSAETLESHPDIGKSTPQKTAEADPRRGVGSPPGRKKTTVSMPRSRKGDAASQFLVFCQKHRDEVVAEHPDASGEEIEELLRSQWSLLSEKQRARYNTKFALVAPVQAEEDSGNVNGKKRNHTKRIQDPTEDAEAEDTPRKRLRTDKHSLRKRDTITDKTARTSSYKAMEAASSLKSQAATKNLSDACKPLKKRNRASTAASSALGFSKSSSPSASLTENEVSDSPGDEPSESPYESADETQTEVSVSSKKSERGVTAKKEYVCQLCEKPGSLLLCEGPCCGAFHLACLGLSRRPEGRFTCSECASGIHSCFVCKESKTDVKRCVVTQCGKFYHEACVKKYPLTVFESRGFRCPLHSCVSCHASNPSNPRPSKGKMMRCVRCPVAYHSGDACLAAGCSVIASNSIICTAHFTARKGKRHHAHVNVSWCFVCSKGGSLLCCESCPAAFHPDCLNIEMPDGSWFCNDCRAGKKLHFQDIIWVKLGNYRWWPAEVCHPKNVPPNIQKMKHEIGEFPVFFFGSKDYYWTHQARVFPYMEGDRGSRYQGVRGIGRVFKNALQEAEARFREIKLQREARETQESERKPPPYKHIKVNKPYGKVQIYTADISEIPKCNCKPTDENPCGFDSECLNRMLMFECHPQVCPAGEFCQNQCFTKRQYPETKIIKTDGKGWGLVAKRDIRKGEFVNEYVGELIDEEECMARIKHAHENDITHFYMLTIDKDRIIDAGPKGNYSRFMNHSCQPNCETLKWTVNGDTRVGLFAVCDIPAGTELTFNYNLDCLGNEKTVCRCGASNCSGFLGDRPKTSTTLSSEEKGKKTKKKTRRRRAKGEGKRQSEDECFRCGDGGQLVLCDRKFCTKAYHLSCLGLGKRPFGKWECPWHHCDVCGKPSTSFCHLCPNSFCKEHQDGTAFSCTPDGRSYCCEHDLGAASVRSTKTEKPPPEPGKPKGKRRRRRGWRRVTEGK

[3] = cAMP pathway inhibition in counterscreen cell line – TR-FRET cAMP detection, counter-screen for MC4R biased antagonist project, dose response (AID 602305); type: functional, cell-based;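 further: U2OS cells stimulated with forskolin near its EC80 as the cAMP inducer; potency is for inhibition of forskolin-stimulated cAMP signaling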
[4] = biological target: Melanocortin receptor 4 (Homo sapiens, UniProt P32245); experiment: inhibitors of MC4R cAMP signaling – cell-based, TR-FRET, biased antagonists, dose response (AID 602298); type: functional;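 further: antagonist potency against agonist-stimulated cAMP production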
[5] = cells; type: functional
[6] = biological target: T2, Heat shock factor protein 1 (Mus musculus, UniProt P38532); experiment: enhancement of HSF1-driven luciferase signal – cell-based, NIH3T3, luminescence, dose retest, confirmation (AID 435004); type: functional;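 further: stress induced by proteasome inhibitor MG132 added 30 min after compound; luciferase reporter driven by HSF1 response element in NIH3T3 cells; actives raise luminescence as potentiators of the MG132 stress response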
T2 sequence (P38532 whole entry): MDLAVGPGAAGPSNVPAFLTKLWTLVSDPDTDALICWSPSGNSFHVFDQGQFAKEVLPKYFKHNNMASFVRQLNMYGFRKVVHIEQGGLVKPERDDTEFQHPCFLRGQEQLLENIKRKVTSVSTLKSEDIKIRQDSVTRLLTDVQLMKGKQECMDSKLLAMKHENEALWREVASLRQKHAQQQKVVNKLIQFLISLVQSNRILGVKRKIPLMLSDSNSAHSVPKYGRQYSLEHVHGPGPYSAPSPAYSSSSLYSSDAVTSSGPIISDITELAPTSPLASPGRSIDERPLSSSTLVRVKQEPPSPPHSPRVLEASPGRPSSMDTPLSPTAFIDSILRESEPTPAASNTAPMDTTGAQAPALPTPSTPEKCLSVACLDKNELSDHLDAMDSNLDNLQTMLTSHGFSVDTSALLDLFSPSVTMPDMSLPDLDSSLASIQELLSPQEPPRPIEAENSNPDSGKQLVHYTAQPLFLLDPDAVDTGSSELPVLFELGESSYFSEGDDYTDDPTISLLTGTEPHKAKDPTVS

[7] = Vero cell cytotoxicity, dose response, cytotoxicity control for M. tuberculosis growth inhibitor project, Vero cells, purified and synthesized compounds, set 5 (AID 504909); type: functional; conditions: Mycobacterium tuberculosis
[8] = THP-1 cell cytotoxicity, cytotoxicity control, set 4 (AID 504911); type: functional; conditions: Mycobacterium tuberculosis
[9] = Vero cell cytotoxicity, cytotoxicity control for M. tuberculosis inhibitor project, purified and synthesized samples, set 3 (AID 504684); type: functional
[10] = Vero cell cytotoxicity, dose response, cytotoxicity control for M. tuberculosis growth inhibitor project, Vero cells, purified and synthesized compounds, set 4 (AID 504854); type: functional; conditions: Mycobacterium tuberculosis
[11] = THP-1 cell cytotoxicity, dose response, cytotoxicity control, set 3 (AID 504852); type: functional; conditions: Mycobacterium tuberculosis
[12] = biological target: Platelet-derived growth factor receptor alpha (Homo sapiens, UniProt P16234); experiment: Navigating the Kinome. Panel member name: PDGFRA; type: functional
Platelet-derived growth factor receptor alpha, sequence (P16234 whole entry): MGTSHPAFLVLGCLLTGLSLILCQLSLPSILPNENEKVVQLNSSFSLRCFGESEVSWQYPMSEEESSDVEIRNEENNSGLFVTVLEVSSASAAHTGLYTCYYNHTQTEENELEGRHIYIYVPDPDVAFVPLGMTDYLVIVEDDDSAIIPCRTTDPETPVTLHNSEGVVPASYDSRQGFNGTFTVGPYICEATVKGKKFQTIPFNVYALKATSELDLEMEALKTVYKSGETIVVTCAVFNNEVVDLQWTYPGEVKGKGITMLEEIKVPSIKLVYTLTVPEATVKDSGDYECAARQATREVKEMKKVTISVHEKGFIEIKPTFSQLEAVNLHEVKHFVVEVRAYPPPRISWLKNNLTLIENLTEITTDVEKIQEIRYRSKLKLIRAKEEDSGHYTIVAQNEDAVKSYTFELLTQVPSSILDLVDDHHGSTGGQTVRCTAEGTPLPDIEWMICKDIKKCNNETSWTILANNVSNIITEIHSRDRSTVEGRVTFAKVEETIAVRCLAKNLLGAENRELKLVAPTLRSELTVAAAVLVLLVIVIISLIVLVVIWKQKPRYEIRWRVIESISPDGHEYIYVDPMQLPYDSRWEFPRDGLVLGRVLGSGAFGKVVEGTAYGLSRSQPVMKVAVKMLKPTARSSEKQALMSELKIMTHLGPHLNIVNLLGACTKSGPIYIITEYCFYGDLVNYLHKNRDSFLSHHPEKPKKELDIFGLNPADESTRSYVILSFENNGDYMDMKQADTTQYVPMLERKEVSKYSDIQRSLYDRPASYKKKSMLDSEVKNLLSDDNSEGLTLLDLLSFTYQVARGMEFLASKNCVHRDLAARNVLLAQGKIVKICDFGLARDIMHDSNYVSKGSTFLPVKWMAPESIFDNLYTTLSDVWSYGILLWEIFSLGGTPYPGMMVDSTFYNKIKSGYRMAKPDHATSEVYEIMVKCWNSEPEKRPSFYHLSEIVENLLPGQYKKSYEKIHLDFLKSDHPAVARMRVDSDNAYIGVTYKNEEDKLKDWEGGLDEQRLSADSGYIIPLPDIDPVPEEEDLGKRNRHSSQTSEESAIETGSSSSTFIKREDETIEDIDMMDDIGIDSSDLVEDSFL

[13] = biological target: Mitogen-activated protein kinase 8 (Homo sapiens, UniProt P45983); type: functional;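 further: value comes from one member of a kinome-wide kinase profiling panel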
[14] = biological target: T3, Activin receptor type-1 (Homo sapiens, UniProt Q04771); experiment: Navigating the Kinome. Panel member name: ACVR1; type: functional
T3 sequence (Q04771 whole entry): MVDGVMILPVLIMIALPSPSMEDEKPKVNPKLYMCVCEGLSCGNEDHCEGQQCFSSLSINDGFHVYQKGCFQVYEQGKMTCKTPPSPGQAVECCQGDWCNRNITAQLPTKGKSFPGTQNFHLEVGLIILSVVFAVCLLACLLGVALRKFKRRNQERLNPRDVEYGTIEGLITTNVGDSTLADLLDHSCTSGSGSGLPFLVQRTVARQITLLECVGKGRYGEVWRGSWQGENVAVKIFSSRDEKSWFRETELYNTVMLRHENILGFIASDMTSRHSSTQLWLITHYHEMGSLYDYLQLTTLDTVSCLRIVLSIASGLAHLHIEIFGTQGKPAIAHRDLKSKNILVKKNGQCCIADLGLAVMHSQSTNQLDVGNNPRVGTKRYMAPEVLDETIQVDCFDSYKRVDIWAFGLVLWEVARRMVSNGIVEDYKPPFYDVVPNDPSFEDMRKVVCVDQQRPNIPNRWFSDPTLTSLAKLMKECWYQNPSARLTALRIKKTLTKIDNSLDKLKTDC

[15] = biological target: Leukocyte tyrosine kinase receptor (Homo sapiens, UniProt P29376); experiment: Navigating the Kinome. Panel member name: LTK; type: functional
[16] = biological target: Dual specificity tyrosine-phosphorylation-regulated kinase 1B (Homo sapiens, UniProt Q9Y463); experiment: Navigating the Kinome. Panel member name: DYRK1B; type: functional
[17] = biological target: Macrophage colony-stimulating factor 1 receptor (Homo sapiens, UniProt P07333); type: functional;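 further: value comes from the Navigating the Kinome screening panel, CSF1R member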
Macrophage colony-stimulating factor 1 receptor, sequence (P07333 whole entry, canonical isoform): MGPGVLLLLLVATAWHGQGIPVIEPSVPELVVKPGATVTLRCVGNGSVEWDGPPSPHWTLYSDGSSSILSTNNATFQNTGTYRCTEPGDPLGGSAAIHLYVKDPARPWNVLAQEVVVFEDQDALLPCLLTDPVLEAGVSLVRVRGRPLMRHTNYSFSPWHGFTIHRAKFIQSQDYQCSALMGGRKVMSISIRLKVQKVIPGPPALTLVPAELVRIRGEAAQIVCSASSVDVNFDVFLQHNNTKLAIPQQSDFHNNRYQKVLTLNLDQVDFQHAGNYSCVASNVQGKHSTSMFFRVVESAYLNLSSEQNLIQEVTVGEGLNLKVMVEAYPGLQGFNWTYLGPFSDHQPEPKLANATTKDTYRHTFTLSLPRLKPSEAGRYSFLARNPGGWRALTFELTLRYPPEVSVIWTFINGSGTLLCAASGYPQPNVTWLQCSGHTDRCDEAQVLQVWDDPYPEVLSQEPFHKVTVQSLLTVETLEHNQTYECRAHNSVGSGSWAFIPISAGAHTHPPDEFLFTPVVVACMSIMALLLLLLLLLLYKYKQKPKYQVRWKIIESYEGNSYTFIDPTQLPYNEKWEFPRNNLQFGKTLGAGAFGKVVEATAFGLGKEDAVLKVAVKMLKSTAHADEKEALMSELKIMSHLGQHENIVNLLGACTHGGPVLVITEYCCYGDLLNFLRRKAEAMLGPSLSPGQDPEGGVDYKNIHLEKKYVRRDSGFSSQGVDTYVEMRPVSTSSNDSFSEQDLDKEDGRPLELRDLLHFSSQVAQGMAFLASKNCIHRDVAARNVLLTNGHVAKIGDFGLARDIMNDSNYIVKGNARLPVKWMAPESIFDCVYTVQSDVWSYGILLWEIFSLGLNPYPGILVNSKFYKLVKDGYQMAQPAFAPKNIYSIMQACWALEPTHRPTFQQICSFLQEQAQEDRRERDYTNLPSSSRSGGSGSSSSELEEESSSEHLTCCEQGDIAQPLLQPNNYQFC

[18] = biological target: Casein kinase I isoform alpha (Homo sapiens, UniProt P48729); type: functional
Casein kinase I isoform alpha, sequence (P48729 whole entry, canonical isoform): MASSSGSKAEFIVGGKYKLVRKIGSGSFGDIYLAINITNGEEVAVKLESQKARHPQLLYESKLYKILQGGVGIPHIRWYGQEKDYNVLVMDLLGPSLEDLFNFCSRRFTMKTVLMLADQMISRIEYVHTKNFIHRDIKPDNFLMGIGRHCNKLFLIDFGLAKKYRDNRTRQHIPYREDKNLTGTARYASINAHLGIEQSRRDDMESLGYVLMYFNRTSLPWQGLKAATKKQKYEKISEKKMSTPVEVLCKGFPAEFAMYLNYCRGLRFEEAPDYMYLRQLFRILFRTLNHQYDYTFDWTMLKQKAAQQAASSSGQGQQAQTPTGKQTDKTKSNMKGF

[19] = biological target: Activated CDC42 kinase 1 (Homo sapiens, UniProt Q07912); experiment: Navigating the Kinome. Panel member name: ACK1; type: functional
[20] = biological target: Fibroblast growth factor receptor 1 (Homo sapiens, UniProt P11362); type: functional
Fibroblast growth factor receptor 1, sequence (P11362 whole entry, the tested form may be a part): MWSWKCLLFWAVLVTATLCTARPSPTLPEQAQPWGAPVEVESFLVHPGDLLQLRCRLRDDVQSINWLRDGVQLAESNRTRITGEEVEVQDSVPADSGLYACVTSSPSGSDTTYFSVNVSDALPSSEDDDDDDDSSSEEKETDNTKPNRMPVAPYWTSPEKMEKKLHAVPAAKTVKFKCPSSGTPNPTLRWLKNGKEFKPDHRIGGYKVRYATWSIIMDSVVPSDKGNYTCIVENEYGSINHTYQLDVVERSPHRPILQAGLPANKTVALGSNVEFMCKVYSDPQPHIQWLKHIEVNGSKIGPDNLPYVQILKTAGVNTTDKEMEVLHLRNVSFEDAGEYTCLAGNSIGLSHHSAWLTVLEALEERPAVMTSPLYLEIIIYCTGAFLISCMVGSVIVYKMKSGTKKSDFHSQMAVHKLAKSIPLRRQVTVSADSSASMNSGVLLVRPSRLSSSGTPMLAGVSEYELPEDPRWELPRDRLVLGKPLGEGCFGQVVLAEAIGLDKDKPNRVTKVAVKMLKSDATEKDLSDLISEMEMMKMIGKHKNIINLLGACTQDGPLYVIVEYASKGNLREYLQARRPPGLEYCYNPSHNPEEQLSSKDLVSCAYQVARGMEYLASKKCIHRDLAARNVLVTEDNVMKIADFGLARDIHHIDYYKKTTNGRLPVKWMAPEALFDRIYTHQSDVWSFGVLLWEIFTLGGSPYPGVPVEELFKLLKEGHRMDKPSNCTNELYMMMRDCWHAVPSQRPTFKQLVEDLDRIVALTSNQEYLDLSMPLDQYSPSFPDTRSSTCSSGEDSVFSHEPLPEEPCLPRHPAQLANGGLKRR

[21] = biological target: LIM domain kinase 1 (Homo sapiens, UniProt P53667); experiment: Navigating the Kinome. Panel member name: LIMK1; type: functional
[22] = biological target: Aurora kinase B (Homo sapiens, UniProt Q96GD4); type: functional
[23] = biological target: Mitogen-activated protein kinase kinase kinase kinase 4 (Homo sapiens, UniProt O95819); type: functional
[24] = biological target: Vascular endothelial growth factor receptor 2 (Homo sapiens, UniProt P35968); type: functional
Vascular endothelial growth factor receptor 2, sequence (P35968 whole entry): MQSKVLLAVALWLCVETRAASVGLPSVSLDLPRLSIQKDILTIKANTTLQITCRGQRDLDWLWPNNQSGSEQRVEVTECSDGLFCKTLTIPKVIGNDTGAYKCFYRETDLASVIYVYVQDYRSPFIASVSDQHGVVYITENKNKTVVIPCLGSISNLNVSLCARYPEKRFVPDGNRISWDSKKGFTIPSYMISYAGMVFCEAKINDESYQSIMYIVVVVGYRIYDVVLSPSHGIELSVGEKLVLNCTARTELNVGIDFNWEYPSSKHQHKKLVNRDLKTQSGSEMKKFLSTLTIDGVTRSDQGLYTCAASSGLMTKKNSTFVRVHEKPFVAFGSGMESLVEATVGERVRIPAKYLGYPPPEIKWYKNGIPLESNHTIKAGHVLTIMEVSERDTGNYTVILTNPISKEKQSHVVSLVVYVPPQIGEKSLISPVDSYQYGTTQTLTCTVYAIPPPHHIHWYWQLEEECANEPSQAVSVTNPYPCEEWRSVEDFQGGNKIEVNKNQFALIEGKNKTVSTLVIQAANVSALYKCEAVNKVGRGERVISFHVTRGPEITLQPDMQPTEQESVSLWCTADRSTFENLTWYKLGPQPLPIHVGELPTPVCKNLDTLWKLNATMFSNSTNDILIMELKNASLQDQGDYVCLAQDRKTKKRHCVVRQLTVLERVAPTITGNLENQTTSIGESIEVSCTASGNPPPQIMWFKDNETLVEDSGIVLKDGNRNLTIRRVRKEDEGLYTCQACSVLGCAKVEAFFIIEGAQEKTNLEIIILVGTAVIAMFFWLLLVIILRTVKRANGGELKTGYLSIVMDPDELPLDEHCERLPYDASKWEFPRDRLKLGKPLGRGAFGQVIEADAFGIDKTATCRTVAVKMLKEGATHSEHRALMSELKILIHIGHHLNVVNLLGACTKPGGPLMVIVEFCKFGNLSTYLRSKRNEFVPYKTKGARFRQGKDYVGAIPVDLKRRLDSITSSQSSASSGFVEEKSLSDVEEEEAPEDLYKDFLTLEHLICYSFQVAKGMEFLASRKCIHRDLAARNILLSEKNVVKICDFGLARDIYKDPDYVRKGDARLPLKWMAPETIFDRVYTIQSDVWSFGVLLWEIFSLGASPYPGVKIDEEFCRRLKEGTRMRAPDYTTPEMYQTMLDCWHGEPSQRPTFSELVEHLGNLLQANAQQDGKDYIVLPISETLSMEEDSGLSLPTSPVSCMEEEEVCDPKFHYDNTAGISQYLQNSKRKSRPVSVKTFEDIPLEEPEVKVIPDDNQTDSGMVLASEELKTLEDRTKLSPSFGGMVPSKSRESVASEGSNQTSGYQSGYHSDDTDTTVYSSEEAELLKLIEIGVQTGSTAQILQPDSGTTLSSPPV

[25] = biological target: Cyclin-dependent kinase 5 (Homo sapiens, UniProt Q00535); type: functional;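 further: CDK5 measured as one member of a kinase profiling panel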
Cyclin-dependent kinase 5, sequence (Q00535 whole entry): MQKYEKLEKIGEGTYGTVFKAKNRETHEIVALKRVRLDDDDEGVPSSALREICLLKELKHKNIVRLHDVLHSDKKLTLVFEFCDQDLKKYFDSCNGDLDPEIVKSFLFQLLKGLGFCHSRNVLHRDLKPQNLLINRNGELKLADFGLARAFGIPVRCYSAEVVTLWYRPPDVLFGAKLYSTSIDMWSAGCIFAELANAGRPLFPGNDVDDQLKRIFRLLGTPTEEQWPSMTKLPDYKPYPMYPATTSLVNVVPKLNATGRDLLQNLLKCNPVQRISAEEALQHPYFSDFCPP

[26] = biological target: Dual specificity protein kinase CLK4 (Homo sapiens, UniProt Q9HAZ1); type: functional

**Q.** For `O=S(=O)(NCCNCC=Cc1ccc(Br)cc1)c1cccc2cnccc12`, which Ki [1] is on record?
**A.** > 7.94 µM (inactive)

**Q.** For `CC(C)Cn1c(N)c(C(=O)COC(=O)c2ccc([N+](=O)[O-])o2)c(=O)n(C)c1=O`, which AC50 [2] is on record?
**A.** > 20 µM (inactive)

**Q.** What about the IC50 [3] of the same compound?
**A.** > 64.6 µM (inactive)

**Q.** What about the IC50 [4] of the same compound?
**A.** > 64.6 µM (inactive)

**Q.** What about the IC50 [5] of the same compound?
**A.** 1.57 µM (active)

**Q.** What about the EC50 [6] of the same compound?
**A.** 18.5 µM (active)

**Q.** For `CCSc1nc(=O)c2ccccc2[nH]1`, which CC50 [7] is on record?
**A.** > 100 µM (active)

**Q.** And the CC50 [8]?
**A.** > 100 µM (active)

**Q.** And the CC50 [9]?
**A.** > 100 µM (active)

**Q.** What about the CC50 [10] of the same compound?
**A.** > 100 µM (active)

**Q.** What about the CC50 [11] of the same compound?
**A.** > 100 µM (active)

**Q.** Which Ki [12] does the source give for `Nc1n[nH]c2c(-c3ccccc3)cccc12` here?
**A.** 50.1 µM (active)

**Q.** What about the Ki [13] of the same compound?
**A.** 15.8 µM (active)

**Q.** What about the Ki [14] of the same compound?
**A.** 79.4 µM (active)

**Q.** And the Ki [15]?
**A.** 50.1 µM (active)

**Q.** What about the Ki [16] of the same compound?
**A.** 50.1 µM (active)

**Q.** What about the Ki [17] of the same compound?
**A.** 63.1 µM (active)

**Q.** What about the Ki [18] of the same compound?
**A.** 39.8 µM (active)

**Q.** And the Ki [19]?
**A.** 79.4 µM (active)

**Q.** And the Ki [20]?
**A.** 79.4 µM (active)

**Q.** What about the Ki [21] of the same compound?
**A.** 63.1 µM (active)

**Q.** And the Ki [22]?
**A.** 79.4 µM (active)

**Q.** What about the Ki [23] of the same compound?
**A.** 25.1 µM (active)

**Q.** What about the Ki [24] of the same compound?
**A.** 50.1 µM (active)

**Q.** What about the Ki [25] of the same compound?
**A.** 50.1 µM (active)

**Q.** What about the Ki [26] of the same compound?
**A.** 79.4 µM (active)
